Experimental data taken from paper PMC10054553, “Development of the First ^18F-Labeled Radiohybrid-Based Minigastrin Derivative with High Target Affinity and Tumor Accumulation by Substitution of the Chelating Moiety” (Pharmaceutics, 2023).

Assay: Stability studies in human serum
Format: in vitro ADME
Conditions: 37 °C; for SiOH-containing analog (%): 24 h, n = 3, analog with hydrolyzed SiFA moiety; for remaining at 24 h, 5 µM: human, n = 3, read-out: Intact peptide (%)
Method: In vitro stability studies in human serum after incubation at 37 °C for 24 h were performed as described in the Supplemental Material.
Stability Studies in Human Serum. The 177Lu- as well as 67Ga-labeled CCK-2R ligands (1 nmol,
approx. 5 MBq) were incubated for 24 h in human serum (200 μL) at 37 °C. After incubation, ice-cold
EtOH (125 μL) and MeCN (375 μL) were added and the suspension was centrifuged for 5 min at
5000 rpm. Then, the supernatant was transferred into new vials and centrifuged for another 5 min at
5000 rpm. After separating the precipitate from the solution, the stability of the ligands was determined

SMILES	SiOH-containing analog (%) (listed as [67Ga]Ga-DOTA-rhCCK-16)	remaining at 24 h, 5 µM [%]	SiOH-containing analog (%)
CCCC[C@H](NC(=O)[C@H](Cc1c[nH]c2ccccc12)NC(=O)CNC(=O)[C@H](Cc1ccc(O)cc1)NC(=O)[C@H](C)NC(=O)CC[C@@H](NC(=O)CC[C@@H](NC(=O)CC[C@@H](NC(=O)CC[C@@H](NC(=O)CC[C@@H](NC(=O)CC[C@@H](NC(=O)[C@@H](CNC(=O)c1ccc([Si](F)(C(C)(C)C)C(C)(C)C)cc1)NC(=O)CN1CCN(CC(=O)O)CCN(CC(=O)O)CCN(CC(=O)O)CC1)C(=O)O)C(=O)O)C(=O)O)C(=O)O)C(=O)O)C(=O)O)C(=O)N[C@@H](CC(=O)O)C(=O)N[C@@H](Cc1ccccc1)C(N)=O [[^67Ga]Ga-DOTA-rhCCK-16, metal not drawn]	56.5 ± 8.0	39.6 ± 7.9	–
CCCC[C@H](NC(=O)[C@H](Cc1c[nH]c2ccccc12)NC(=O)CNC(=O)[C@H](Cc1ccc(O)cc1)NC(=O)[C@H](C)NC(=O)CC[C@@H](NC(=O)CC[C@@H](NC(=O)CC[C@@H](NC(=O)CC[C@@H](NC(=O)CC[C@@H](NC(=O)CC[C@@H](NC(=O)CC[C@@H](NC(=O)CC[C@@H](NC(=O)[C@@H](CNC(=O)c1ccc([Si](F)(C(C)(C)C)C(C)(C)C)cc1)NC(=O)CN1CCN(CC(=O)O)CCN(CC(=O)O)CCN(CC(=O)O)CC1)C(=O)O)C(=O)O)C(=O)O)C(=O)O)C(=O)O)C(=O)O)C(=O)O)C(=O)O)C(=O)N[C@@H](CC(=O)O)C(=O)N[C@@H](Cc1ccccc1)C(N)=O [[^67Ga]Ga-DOTA-rhCCK-18, metal not drawn]	–	43.7 ± 6.9	53.6 ± 6.6
